Laboratory results reported in article PMC7769561, “Antileishmanial activity of synthetic analogs of the naturally occurring quinolone alkaloid N-methyl-8-methoxyflindersin” (PLoS ONE, 2020).
≈ marks a conversion by molar mass, not a printed value. Where “and” joins values, the source holds several entries; their conditions need not be identical. Equal values may be shown once.

What was measured:
[1] = tested on: L. (V.) panamensis promastigotes; assay: Antileishmanial activity in L. (V.) panamensis promastigotes (resazurin, 72 h); assay type: cell-based, Leishmania (Viannia) panamensis; conditions: L. (V.) panamensis promastigotes, ± SD; for EC50: read-out: EC50 Intracellular promastigotes (converted)
Experimental: They were treated with quinoline alkaloid–like compounds at a concentration of 100, 10, 1, 0.1, and 0.01 μg/mL for 72 h at 26°C. Next, we determined antileishmanial activity using the resazurin method (Sigma-Aldrich). Promastigotes treated with amphotericin B (Sigma-Aldrich) and pentamidine (Sanofi-Aventis, Gentilly, France) were used as parasite death (positive) controls. Results were expressed as the medial effective concentration (EC50) using Prism GraphPad software for nonlinear regression analysis (https://www.graphpad.com/scientific-software/prism/).
(§1) All assays required at least three independently duplicated experiments. We determined cytotoxicity against hMDMs and effectivity in L. (V) panamensis promastigotes according to each treatment’s mortality (compound and concentration) using Eq 1, where the control mean fluorescence intensity (MFI) was 100% viability: Validityinhibition(%)=100−[MIFexposedcells/MIFunexposedcells×100] (1)
(§2) We used GraphPad Prism nonlinear regression analysis to estimate the percentage mortality with regard to CC50 and EC50. […] The antileishmanial activity with regard to promastigotes was classified as active according to Eq 2: Active=EC50<[LC50/2], (2) where LC50 is the median lethal concentration. We also used GraphPad Prism nonlinear regression analysis to determine the intracellular antileishmanial activity (concentration vs. response), depending on the infection (number of infected cells) and parasite burden (number of parasites/cell) obtained in experimental conditions. Parasite inhibition was estimated using Eq 3, where the plate MFI is 100% parasites: Infectioninhibition(%)=100−[(MIFexposedparasites/MIFunexposedparasites×100)] (3)

[2] = tested on: L. (V.) panamensis intracellular amastigotes; assay: Antileishmanial activity in L. (V.) panamensis intracellular amastigotes in hMDMs; assay type: cell-based, Leishmania (Viannia) panamensis; conditions: for SI (selectivity index = CC50/EC50): CC50 hMDMs / EC50 intracellular amastigotes
Experimental: Next, 100 μL of the suspension was cultured in 96-well plates and infected with L. (V.) panamensis promastigotes (HMOM/COL/87/UA-140) at a 10:1 parasite:cell ratio. We incubated the plates in a 5% CO2 atmosphere for 4 h at 35°C. After incubation, we removed noninternalized parasites by washing the cells with 0.9% NaCl saline solution (Baxter International, Deerfield, IL, USA). The cells were incubated again for 24 h and then treated with each quinoline alkaloid–like compound at a concentration of 100, 10, 1, 0.1, and 0.01 μg/mL in a 5% CO2 atmosphere for 72 h at 36°C. Next, we quantified the percentage of infected cells using fluorescence microscopy, as previously described by Pérez-Cordero in 2011 [23], and quantified the parasite load (amount of intracellular promastigotes and amastigotes per cell) using Giemsa staining and flow cytometry (Cytomics FC 500 MPL; Beckman Coulter, Brea, CA, USA). […] Results were expressed as EC50 using Prism GraphPad software’s probit nonlinear regression analysis (https://www.graphpad.com/scientific-software/prism/).
as §2
The percentage inhibition was used to calculate EC50 by nonlinear regression analysis (fluorescence microscopy), while the parasite burden was evaluated as the percentage of intracellular promastigotes and amastigotes in 100 infected cells (Giemsa staining). […] The selectivity index (SI) was estimated using the following formula: SI=CC50/EC50

hMDMs = assay: Apoptosis in noninfected and L. (V.) panamensis-infected hMDMs (annexin V/7AAD flow cytometry); assay type: cell-based, human; conditions: compound at EC50, 72 h
Experimental: Next, the cells were fixed with 4% paraformaldehyde for evaluating dead cells using a live/dead cell viability kit (Beckton, Dickinson and Company, Franklin Lakes, NJ, USA). hMDMs cultured without any treatment were used as viability controls, while those treated with 0.01% H2O2, 10 μg/mL of lipopolysaccharide (LPS; Sigma-Aldrich), and 1% dimethyl sulfoxide (DMSO) were used as cell mortality (positive) controls. Apoptotic and necrotic cells were quantified using flow cytometry (FACS Canto II; Becton, Dickinson and Company).

[3] = tested on: L. (V.) panamensis-infected hMDMs; assay: ROS generation in L. (V.) panamensis-infected hMDMs (H2DCFDA flow cytometry); assay type: cell-based, human; conditions: compound at EC50, 4, 24, 48 and 72 h
Experimental: (§3) Next, we detached the cells with ethylenediaminetetraacetic acid (EDTA)/trypsin (Lonza, MD, USA) and 2',7'-dichlorodihydrofluorescein diacetate (H2DCFDA) tagged on a 5 μM fluorescent tube (Sigma-Aldrich) in order to identify intracellular ROS and/or 4-amino-5-methylamino-2′,7′-difluorofluorescein (DAF-FM; Sigma-Aldrich) for NO production in a 5% CO2 atmosphere for 45 min at 37°C. ROS and NO were quantified using flow cytometry (FACS Canto II) at a wavelength of 480 nm. Untreated cells were used as negative controls, while cells treated with 0.0001% H2O2 and 1 μM phorbol myristate acetate were used as ROS production (positive) controls. LPS (10 ng/mL) and phytohemagglutinin (PHA-M) (10 μL/mL) (Invitrogen) were used as positive controls for NO production.

[4] = tested on: L. (V.) panamensis-infected hMDMs; assay: NO production in L. (V.) panamensis-infected hMDMs (DAF-FM flow cytometry); assay type: cell-based, human
Experimental: as §3

[5] = tested on: L. (V.) panamensis-infected hMDMs; assay: Transmission electron microscopy of L. (V.) panamensis-infected hMDMs; assay type: cell-based, human; conditions: compound at EC50, 72 h, TEM; as to Cell membrane (ultrastructural modification grade): key: -: no alteration/absence; +: low alteration/low presence; ++: alteration/moderate presence; +++: serious disturbance/abundant presence; as to LB (lipid bodies, grade): key: -: no alteration/absence; +: low alteration/low presence; ++: alteration/moderate presence; +++: serious disturbance/abundant presence; as to Mitochondria (ultrastructural modification grade): key: -: no alteration/absence; +: low alteration/low presence; ++: alteration/moderate presence; +++: serious disturbance/abundant presence; as to Nucleus (ultrastructural modification grade): key: -: no alteration/absence; +: low alteration/low presence; ++: alteration/moderate presence; +++: serious disturbance/abundant presence
Description: (§4) This procedure involved including fresh resin and 100–200-nm-wide ultrafine cuts observed by TEM (100X–10.000X) (HITACHI-HU-12; Hitachi, Tokyo, Japan).

[6] = tested on: L. (V.) panamensis intracellular amastigotes; assay: Transmission electron microscopy of L. (V.) panamensis intracellular amastigotes in hMDMs; assay type: cell-based, Leishmania (Viannia) panamensis; set-up: Nucleus (ultrastructural alteration grade) / Vacuoles (ultrastructural alteration grade): key: -: no alteration/absence; +: low alteration/low presence; ++: alteration/moderate presence; +++: serious disturbance/abundant presence; conditions: compound at EC50, 72 h, TEM
Description: as §4

in vitro = conditions: human
Experimental: We isolated hMDMs from buffy coats donated by the Institute of Local Science (Biotechnology and Health Innovation, Bogotá, Colombia) and spun them in Lymphoprep density gradient medium (Stem-Cell, Vancouver, Canada).
Next, we added 100 μL of this culture to each quinoline alkaloid–like compound at a concentration of 200, 20, 2, 0.2, and 0.02 μg/mL. […] Cells treated with amphotericin B (Sigma-Aldrich) were used as cell apoptosis (positive) controls. Results were expressed as the medial cytotoxic concentration (CC50) using Prism GraphPad software for nonlinear regression analysis (https://www.graphpad.com/scientific-software/prism/).
as §1, §2

[7] = tested on: L. (V.) panamensis intracellular amastigotes; assay: Antileishmanial activity in L. (V.) panamensis intracellular amastigotes in hMDMs; assay type: cell-based, Leishmania (Viannia) panamensis; conditions: 72 h, ± SD
[8] = amastigotes in hMDMs, 72 h, ± SD

COc1ccc2c3c(c(=O)n(C)c2c1)C=CC(C)(C)O3 [Compound 1, N-methyl-8-methoxyflindersin]
EC50 Intracellular promastigotes [1]: 9.9 ± 3 µg/mL (≈ 36.5 µM) | EC50 [1]: 36.5 µM | SI (selectivity index = CC50/EC50) [2]: 5.87 | EC50 [2, 8]: 29.2 µM | EC50 Intracellular amastigotes [2, 8]: 7.4 ± 1.95 µg/mL (≈ 27.3 µM) | Antileishmanial activity class ([2]; intracellular amastigotes, class by EC50): high (high if EC50 < 25 μg/mL) | Percentage of apoptotic cells (annexin V+ 7AAD–, Q3) (hMDMs; L. (V.) panamensis-infected hMDMs): 41.3% | Percentage of apoptotic cells (annexin V+ 7AAD–, Q3) (hMDMs; noninfected (basal) hMDMs): 20.2% | ROS generation compared to infected control cells [3]: no significant variations | NO production compared to untreated infected hMDMs ([4]; compound at EC50, 24, 48 and 72 h): increase in NO production | NO production ([4]; compound at EC50, 72 h posttreatment): increase in NO production | Cell membrane (ultrastructural modification grade) [5]: - | LB (lipid bodies, grade) [5]: - | Mitochondria (ultrastructural modification grade) [5]: + | Nucleus (ultrastructural modification grade) [5]: - | PV (description) [5]: Individuals, attached to the parasite | PV (parasitophorous vacuoles, grade) [5]: + | Parasites (grade) [5]: + | Vacuoles (description) [5]: Double membrane (autophagic-digestives) | Vacuoles (ultrastructural modification grade) [5]: ++ | Cell membrane (description) [6]: Integrity damage in membrane | Cell membrane (ultrastructural alteration grade) [6]: +++ | Flagellum (flagellar/axonema pocket) (grade) [6]: - | LB (lipid bodies, grade) [6]: - | Mitochondria/Kinetoplasts (ultrastructural alteration grade) [6]: - | Nucleus (description) [6]: Nuclear membrane damage | Nucleus (ultrastructural alteration grade) [6]: +++ | PV (description) [6]: Individuals attached to the parasite | PV (parasitophorous vacuoles, grade) [6]: + | Vacuoles (description) [6]: Electrodense acidocalcisome type | Vacuoles (ultrastructural alteration grade) [6]: ++

C[C@@H]1[C@H](O)[C@@H](C)/C=C/C=C/C=C/C=C/C=C/C=C/C=C/[C@H](O[C@@H]2O[C@H](C)[C@@H](O)[C@H](N)[C@@H]2O)C[C@@H]2O[C@](O)(C[C@@H](O)C[C@@H](O)[C@H](O)CC[C@@H](O)C[C@@H](O)CC(=O)O[C@H]1C)C[C@H](O)[C@H]2C(=O)O [AMB, amphotericin B, reference compound]
CC50 at 72 h (in vitro): 4.5 µg/mL and 4.9 µM | EC50 [1]: 0.3 µg/mL and 300 nM | SI (selectivity index = CC50/EC50) [2]: 11.25 | EC50 [7]: 0.4 µg/mL and 400 nM

Cc1cc(=O)[nH]c2ccccc12 [Compound 4, 4-methyl-2-(1H)-quinolinone]
CC50 at 72 h (in vitro): 95.2 µg/mL and 391 µM | EC50 [1]: 62.3 µg/mL and 256 µM | SI (selectivity index = CC50/EC50) [2]: 1.66 | EC50 [7]: 57.1 µg/mL and 256 µM
